Results from patent publication US20110071150A1 (priority 2009, published 2011).

System: Jurkat IL-2 Production
Test: Jurkat IL-2 Production Assay
Assay type: cell-based
Settings: Homo sapiens, Jurkat cell (ATCC), 18-20 h incubation, PHA 5 μg/mL with 1% FBS, or PMA/Ionomycin with 30% FBS (table does not say which)
Summary of the method: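 Jurkat cells were exposed to compound (0.25% DMSO final) for 10 min, then stimulated for 18–20 h at 37 °C. The 1% FBS condition used 5 μg/mL PHA; the high-serum condition (30% FBS) used 50 ng/mL PMA plus 500 ng/mL ionomycin. IC50 was derived from IL-2 production.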

| SMILES | IC50 [nM] |
| --- | --- |
| Cc1cc(-c2nnco2)ccc1-c1ccc2[nH]c(-c3c(F)cccc3Cl)cc2c1 [Example 115, 2-(2-Chloro-6-fluoro-phenyl)-5-(2-methyl-4-[1,3,4]oxadiazol-2-yl-phenyl)-1H-indole] | 38 |
| COC(=O)c1cc(C)c(-c2ccc3[nH]c(-c4c(F)cccc4Cl)cc3c2)cn1 [Example 117, 5-[2-(2-Chloro-6-fluoro-phenyl)-1H-indol-5-yl]-4-methyl-pyridine-2-carboxylic acid methyl ester] | 19 |
| CNC(=O)c1cc(C)c(-c2ccc3[nH]c(-c4c(F)cccc4Cl)cc3c2)cn1 [Example 118, 5-[2-(2-Chloro-6-fluoro-phenyl)-1H-indol-5-yl]-4-methyl-pyridine-2-carboxylic acid methylamide] | 180 |
| Cc1cc(-c2nnco2)ncc1-c1ccc2[nH]c(-c3c(F)cccc3Cl)cc2c1 [Example 119, 2-(2-Chloro-6-fluoro-phenyl)-5-(4-methyl-6-[1,3,4]oxadiazol-2-yl-pyridin-3-yl)-1H-indole] | 14 |
| Cc1nnc(-c2cc(C)c(-c3ccc4[nH]c(-c5c(F)cccc5Cl)cc4c3)cn2)o1 [Example 120, 2-(2-Chloro-6-fluoro-phenyl)-5-[4-methyl-6-(5-methyl-[1,3,4]oxadiazol-2-yl)-pyridin-3-yl]-1H-indole] | 19 |
| COc1cnc(-c2ccc3[nH]c(-c4c(F)cccc4Cl)cc3c2)c(C)c1 [Example 122, 2-(2-Chloro-6-fluoro-phenyl)-5-(5-methoxy-3-methyl-pyridin-2-yl)-1H-indole] | 260 |
| COc1ccc(-c2ccc3[nH]c(-c4c(F)cccc4Cl)cc3c2)c(C)n1 [Example 123, 2-(2-Chloro-6-fluoro-phenyl)-5-(6-methoxy-2-methyl-pyridin-3-yl)-1H-indole] | 448 |
| CCn1nc(-c2cccnc2)nc1-c1ccc2[nH]c(-c3c(F)cccc3Cl)cc2c1 [Example 124, 2-(2-Chloro-6-fluoro-phenyl)-5-(2-ethyl-5-pyridin-3-yl-2H-[1,2,4]triazol-3-yl)-1H-indole] | 11 |
| COC(=O)c1ccc(-c2ccc3[nH]c(-c4ccccc4Cl)cc3c2)c(C)c1 [Example 126] | 106 |
| CNC(=O)c1ccc(-c2ccc3[nH]c(-c4ccccc4Cl)cc3c2)c(C)c1 [Example 127, 4-[2-(2-Chloro-phenyl)-1H-indol-5-yl]-3,N-dimethyl-benzamide] | 991 |
| Cc1cc(C(N)=O)ccc1-c1ccc2[nH]c(-c3ccccc3Cl)cc2c1 [Example 128, 4-[2-(2-Chloro-phenyl)-1H-indol-5-yl]-3-methyl-benzamide] | 776 |
| Cc1cc(C#N)ccc1-c1ccc2[nH]c(-c3ccccc3Cl)cc2c1 [Example 129, 4-[2-(2-Chloro-phenyl)-1H-indol-5-yl]-3-methyl-benzonitrile] | 237 |

Other lines, results leading:

| IC50 [nM] | SMILES |
| --- | --- |
| 39 | Cn1nc(-c2cccnc2)nc1-c1ccc2[nH]c(-c3c(F)cccc3F)cc2c1 [Example 114, 2-(2,6-Difluoro-phenyl)-5-(2-methyl-5-pyridin-3-yl-2H-[1,2,4]triazol-3-yl)-1H-indole] |
| 12 | Cn1nc(-c2cccnc2)nc1-c1ccc2[nH]c(-c3c(F)cccc3Cl)cc2c1 [Example 116, 2-(2-Chloro-6-fluoro-phenyl)-5-(2-methyl-5-pyridin-3-yl-2H-[1,2,4]-triazol-3-yl)-1H-indole] |
| 12 | COc1cc(C)c(-c2ccc3[nH]c(-c4c(F)cccc4Cl)cc3c2)cn1 [Example 121, 2-(2-Chloro-6-fluoro-phenyl)-5-(6-methoxy-4-methyl-pyridin-3-yl)-1H-indole] |
| 49 | Cc1sc(-c2ncco2)nc1-c1ccc2[nH]c(-c3c(F)cccc3Cl)cc2c1 [Example 125, 2-(2-Chloro-6-fluoro-phenyl)-5-(5-methyl-2-oxazol-2-yl-thiazol-4-yl)-1H-indole] |
| 16 | Cc1cc(S(=O)(=O)N(C)C)ccc1-c1ccc2[nH]c(-c3ccccc3Cl)cc2c1 [Example 130, 4-[2-(2-Chloro-phenyl)-1H-indol-5-yl]-3,N,N-trimethyl-benzenesulfonamide] |
